The text below walks through data of patent US5827837A, “Polyanion anti-inflammatory agents” (priority 1996, dated 1998).

The test system of one assay is selectin. The experiment in a line: Selectin-sulfatide interactions. It is filed as binding.
In assay [1] the target is T1, P-selectin-lg fusion protein (Homo sapiens, UniProt P16109).
T1 construct: Each selectin-lg contains the lectin domain, epidermal growth factor domain, and one (L-selectin-lg), two (P-selectin-lg) or six (E-selectin-lg) complement regulatory repeats; made in house
T1 sequence (P16109 with tags, fused parts or gaps limits assumed): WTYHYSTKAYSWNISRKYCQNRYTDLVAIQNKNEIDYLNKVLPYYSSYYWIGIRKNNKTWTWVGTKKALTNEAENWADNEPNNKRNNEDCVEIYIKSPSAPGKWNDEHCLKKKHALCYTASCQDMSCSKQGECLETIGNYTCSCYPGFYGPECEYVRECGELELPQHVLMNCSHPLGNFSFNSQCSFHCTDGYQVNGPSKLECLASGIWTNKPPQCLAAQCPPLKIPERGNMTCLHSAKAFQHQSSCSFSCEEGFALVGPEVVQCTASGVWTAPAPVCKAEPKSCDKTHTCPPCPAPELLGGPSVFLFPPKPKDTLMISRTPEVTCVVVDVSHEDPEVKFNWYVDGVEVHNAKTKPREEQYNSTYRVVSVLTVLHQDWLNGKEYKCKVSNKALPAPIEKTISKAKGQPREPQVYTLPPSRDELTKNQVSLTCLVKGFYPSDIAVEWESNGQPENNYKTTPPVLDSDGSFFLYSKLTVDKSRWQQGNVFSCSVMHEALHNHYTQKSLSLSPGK
The experiment in a line: LS 180 colon cancer cell adhesion to immobilized P-selectin-Ig. The assay is classed as cell-based. As for the experimental part: Cell adhesion assays on immobilized selectin-lg were performed essentially as described (Nelson, R. M., et al., J. Clin. Invest., 91:1157, 1993; Nelson, R. M., et al., Symposia on Quant. Biol., 57:271, 1992). Briefly, Nunclon Terasaki Microwell plates were coated overnight with 5 μl/well of a 5 μg/ml solution of protein A (Chemicon, Temecula, Calif.) in 50 mM carbonate buffer, pH 9.5. Protein-A-coated plates were washed with Dulbecco's phosphate buffered saline (PBS), incubated for 1 hour with L-, P-, or E-selectin-lg fusion proteins in PBS (5-20 μg/ml), washed again, and blocked with PBS containing 1% human serum albumin (HSA). To measure inhibition of cell adhesion, 5 μl/well of lnsP6 in PBS was added to the selectin-lg coated plates and incubated for 30 min at […]. LS 180 cells were harvested by brief trypsinization and resuspended at 1.5×10^6 cells/ml in PBS containing 1% HSA; five μl/well of suspension was added, and incubated for 30 min at 4° C. After washing to remove unbound cells, adherent cells were fixed with glutaraldehyde (2.5% in PBS) and counted. Symbols and error bars represent mean number of adherent cells/mm^2 ±s.e.m., counted in quadruplicate wells in a single experiment representative of three. No LS 180 cell adhesion was detected on plates coated with protein A alone, or on plates coated with protein A-captured CD8-lg fusion protein.
LS 180 cells (ATCC, Rockville, Md.) were added to cell culture wells containing protein A-captured selectin-lg fusion proteins and incubated for 30 min at 4° C. to allow adhesion. The plates were washed to remove unbound cells and adherent cells were counted microscopically. To determine adhesion blocking activity, InsP6 at the indicated concentrations was added to selectin-lg-coated wells 30 min prior to addition of LS 180 cells.

The next assay concerns the target T2, P-selectin (P-COS) (Homo sapiens, UniProt P16109).
T2 construct: adhesion of human PMN or HL60
T2 sequence (P16109 42-830): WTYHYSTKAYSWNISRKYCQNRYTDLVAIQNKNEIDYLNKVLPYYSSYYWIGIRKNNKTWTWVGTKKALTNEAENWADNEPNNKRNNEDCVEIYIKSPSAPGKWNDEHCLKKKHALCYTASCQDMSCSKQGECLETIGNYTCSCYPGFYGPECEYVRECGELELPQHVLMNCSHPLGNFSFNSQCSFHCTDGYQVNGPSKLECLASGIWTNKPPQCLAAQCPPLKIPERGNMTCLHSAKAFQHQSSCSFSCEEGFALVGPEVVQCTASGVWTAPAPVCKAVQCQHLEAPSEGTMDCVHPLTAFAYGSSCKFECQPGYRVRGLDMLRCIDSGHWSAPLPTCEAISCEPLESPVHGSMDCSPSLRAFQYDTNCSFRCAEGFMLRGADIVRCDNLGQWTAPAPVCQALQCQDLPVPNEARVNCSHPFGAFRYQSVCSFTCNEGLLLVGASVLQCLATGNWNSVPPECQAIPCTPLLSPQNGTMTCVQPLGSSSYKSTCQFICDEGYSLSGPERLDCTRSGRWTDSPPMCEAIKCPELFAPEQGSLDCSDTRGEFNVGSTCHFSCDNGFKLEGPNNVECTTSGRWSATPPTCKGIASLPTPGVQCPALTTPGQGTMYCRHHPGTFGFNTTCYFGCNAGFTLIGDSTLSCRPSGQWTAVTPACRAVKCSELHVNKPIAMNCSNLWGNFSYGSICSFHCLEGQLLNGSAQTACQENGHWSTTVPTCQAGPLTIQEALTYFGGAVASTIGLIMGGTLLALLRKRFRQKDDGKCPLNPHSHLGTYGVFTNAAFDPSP
The experiment in a line: PMN adhesion to P-selectin transfected COS cells (P-COS). It is filed as cell-based. The conditions noted are these: for PMN adhesion to P-selectin transfected COS: inositol up to 10 mM, InsP6 0.5 mM. The method, then: COS-1 cells were transfected as described (Seed, B., et al., Proc. Natl. Acad. Sci., U.S.A., 84:3365, 1987; Aruffo, A., Current Protocols In Molecular Biology, eds. supra, 1992) with pCDM7/pCDM8 expression vectors containing the full-length E-, P- and L-selectin cDNA. Transfected COS-1 cells were seeded on gelatin coated coverslips.

On to `O=P(O)(O)O[C@H]1[C@H](OP(=O)(O)O)[C@@H](OP(=O)(O)O)[C@H](OP(=O)(O)O)[C@@H](OP(=O)(O)O)[C@H]1OP(=O)(O)O` [InsP6, myo-inositol hexakisphosphate], for which, in the assay with selectin, the “blocking of selectin-sulfatide interactions” value was “blocked selectin-sulfatide interactions at concentrations similar to those that were effective in blocking the binding to BSA-sLe^x”. In addition, the “LS 180 adhesion to P-selectin-Ig” value in assay [1] is “blocked the adhesion of LS 180 cells”. For the same molecule, the “PMN adhesion to P-selectin transfected COS” value on P-selectin (P-COS) is given as “blocked PMN adhesion to P-COS”.

In the case of `O=S(=O)(O)O[C@H]1[C@H](OS(=O)(=O)O)[C@@H](OS(=O)(=O)O)[C@H](OS(=O)(=O)O)[C@@H](OS(=O)(=O)O)[C@H]1OS(=O)(=O)O` [InsS6, myo-inositol hexakissulfate], the “blocking of selectin-sulfatide interactions” value in the assay with selectin is “blocked selectin-sulfatide interactions at concentrations similar to those that were effective in blocking the binding to BSA-sLe^x”. The inhibition at 4000 µM in assay [1] (LS180, 4 mM, single experiment) is ~45%. In addition, the inhibition at 5000 µM on P-selectin (P-COS) (COS, 5 mM, read-out: blocking of PMN adhesion to P-selectin transfected COS) worked out at 63%.

For `O[C@H]1[C@H](O)[C@@H](O)[C@H](O)[C@@H](O)[C@H]1O` [myo-inositol, reference compound], in the assay on selectin, the “blocking of selectin-sulfatide interactions” value is “not inositol) blocked selectin-sulfatide interactions”. For the same molecule, the “LS 180 adhesion to P-selectin-Ig” value in assay [1] was “inactive at concentrations up to 5 mM”. Also, the “PMN adhesion to P-selectin transfected COS” value on P-selectin (P-COS) is given as “no effect at concentrations up to 10 mM”.
